Literature values as cited in publication PMC3720659, “Integrated Analysis of Drug-Induced Gene Expression Profiles Predicts Novel hERG Inhibitors” (PLoS ONE, 2013).
Where two headings read alike, the source gives them in different places.

Columns and labels:
[1] = cited from earlier work
[2] = tested on: hERG current; conditions: cited from earlier work
[3] = on LQT Drug List, the Cell Line (HL60, MCF7, PC3) names the expression profile
[4] = drug on LQT Drug List, the Cell Line (HL60, MCF7, PC3) is the cell line of the expression profile
[5] = annotation of the drug, Cell Line (HL60, MCF7, PC3) is the cell line of the drug-induced expression profile, not of the hERG assay, ref hERGcentral
[6] = hERG annotation of the drug, the Cell Line (HL60, MCF7, PC3) names the expression profile, not the hERG test
[7] = hERG inhibition annotation of the drug, the Cell Line (HL60, MCF7, PC3) is the cell line of the expression profile, not of the hERG test

Compound	Annotation (hERG inhibition class, Active/Inactive by IC50) [2, 5]	also measured
COc1cc2nc(N(C)CCCNC(=O)C3CCCO3)nc(N)c2cc1OC (stereo not shown) [alfuzosin]		Annotation (LQT Drug) [1, 3]: LQT Drug
NC12CC3CC(CC(C3)C1)C2 [amantadine]		Annotation (LQT Drug) [1, 3]: LQT Drug
CN(C)CCC=C1c2ccccc2CCc2ccccc21 [amitriptyline]		Annotation (LQT Drug) [1, 3]: LQT Drug
CCN(CC)CCCC(C)Nc1ccnc2cc(Cl)ccc12 (stereo not shown) [chloroquine]		Annotation (LQT Drug) [1, 3]: LQT Drug
CNCCCN1c2ccccc2CCc2ccccc21 [desipramine]		Annotation (LQT Drug) [1, 3]: LQT Drug
CC(CCc1ccc(O)cc1)NCCc1ccc(O)c(O)c1 (stereo not shown) [dobutamine]		Annotation (LQT Drug) [1, 3]: LQT Drug
OCCN1CCN(CCCN2c3ccccc3Sc3ccc(C(F)(F)F)cc32)CC1 [fluphenazine]		Annotation (LQT Drug) [1, 4]: LQT Drug
COC1=C2C[C@@H](C)C[C@H](OC)[C@H](O)[C@@H](C)/C=C(\C)[C@H](OC(N)=O)[C@@H](OC)/C=C\C=C(/C)C(=O)NC(=CC1=O)C2=O [geldanamycin]		Annotation (LQT Drug) [1, 4]: LQT Drug
CC1Cc2ccccc2N1NC(=O)c1ccc(Cl)c(S(N)(=O)=O)c1 (stereo not shown) [indapamide]		Annotation (LQT Drug) [1, 4]: LQT Drug
CC(=O)N1CCN(c2ccc(OCC3COC(Cn4ccnc4)(c4ccc(Cl)cc4Cl)O3)cc2)CC1 (stereo not shown) [ketoconazole]		Annotation (LQT Drug) [1, 4]: LQT Drug
CNCCCC12CCC(c3ccccc31)c1ccccc12 [maprotiline]		Annotation (LQT Drug) [1, 4]: LQT Drug
COc1ccc(C[C@H](N)C(=O)N[C@H]2[C@@H](O)[C@H](n3cnc4c(N(C)C)ncnc43)O[C@@H]2CO)cc1 [puromycin]	Inactive	
CCC1(CC)C(=O)C=CNC1=O [pyrithyldione]	Inactive	
O=C(c1ccc(OCCN2CCCCC2)cc1)c1c(-c2ccc(O)cc2)sc2cc(O)ccc12 [raloxifene]		Annotation (hERG inhibition class, Active/Inactive by IC50) [2]: Inactive
CCN1CCC[C@H]1CNC(=O)c1c(OC)ccc(Br)c1OC [remoxipride]	Inactive	
CCOc1cc(CC(=O)N[C@@H](CC(C)C)c2ccccc2N2CCCCC2)ccc1C(=O)O [repaglinide]	Inactive	
COC(=O)[C@H]1[C@H]2C[C@@H]3c4[nH]c5cc(OC)ccc5c4CCN3C[C@H]2C[C@@H](OC(=O)/C=C/c2cc(OC)c(OC)c(OC)c2)[C@@H]1OC [rescinnamine]	Inactive	
Oc1ccc(/C=C/c2cc(O)cc(O)c2)cc1 [resveratrol]	Inactive	
NC(=O)c1ncn([C@@H]2O[C@H](CO)[C@@H](O)[C@H]2O)n1 [ribavirin]	Inactive	
CCC(=O)[C@@]1(C)[C@H](C)C[C@H]2[C@@H]3CCC4=CC(=O)C=C[C@]4(C)[C@H]3[C@@H](O)C[C@@]21C [rimexolone]	Inactive	
COc1ccc(C2CNC(=O)C2)cc1OC1CCCC1 (stereo not shown) [rolipram]	Inactive	
CN(CCOc1ccc(CC2SC(=O)NC2=O)cc1)c1ccccn1 (stereo not shown) [rosiglitazone]	Inactive	
C[C@@H]1NCCc2cc(O)c(O)cc21 [salsolinol]	Inactive	
COc1cc2c(cc1O)[C@@H]1Cc3ccc(OC)c(O)c3CN1CC2 [scoulerine]	Inactive	
O=C1C=C2C=C[C@@H]3C[C@@]2(O1)[C@H]1CCCCN31 [securinine]	Inactive	
NCCc1c[nH]c2ccc(O)cc12 [serotonin]	Inactive	
C[C@]12CC[C@H]3[C@@H](CC[C@]4(O)C[C@@H](O)CC[C@]34C=O)[C@@]1(O)CC[C@@H]2C1=CC(=O)OC1 [strophanthidin]	Inactive	

Compound	Annotation (hERG inhibition class, Active/Inactive by IC50) [2, 5]	also measured
O=C(O)CCC(=O)Nc1ccc(S(=O)(=O)Nc2nccs2)cc1 [succinylsulfathiazole]	Inactive	
Nc1ccc(S(=O)(=O)Nc2ncccn2)cc1 [sulfadiazine]	Inactive	
COc1ncnc(NS(=O)(=O)c2ccc(N)cc2)c1OC [sulfadoxine]	Inactive	
[H]/N=C(/N)NS(=O)(=O)c1ccc(N)cc1 [sulfaguanidine]	Inactive	
COc1cc(NS(=O)(=O)c2ccc(N)cc2)ncn1 [sulfamonomethoxine]	Inactive	
Nc1ccc(S(=O)(=O)Nc2ccnn2-c2ccccc2)cc1 [sulfaphenazole]	Inactive	
Nc1ccc(S(=O)(=O)Nc2ccccn2)cc1 [sulfapyridine]	Inactive	
CC1=C(CC(=O)O)c2cc(F)ccc2/C1=C\c1ccc([S+](C)[O-])cc1 (stereo not shown) [sulindac]	Inactive	
CCCCCCCCNC(C)C(O)c1ccc(SC(C)C)cc1 (stereo not shown) [suloctidil]	Active	
CCN1CCCC1CNC(=O)c1cc(S(N)(=O)=O)ccc1OC (stereo not shown) [sulpiride]	Inactive	
CCOC(=O)Oc1c(OC)cc(C(=O)O[C@@H]2C[C@@H]3CN4CCc5c([nH]c6cc(OC)ccc56)[C@H]4C[C@@H]3[C@H](C(=O)OC)[C@H]2OC)cc1OC [syrosingopine]	Inactive	
Nc1c2c(nc3ccccc13)CCCC2 [tacrine]		Annotation (hERG inhibition class, Active/Inactive by IC50) [2]: Inactive
CC1(C)S[C@@H]2[C@H](NC(=O)[C@H](N)c3ccccc3)C(=O)N2[C@H]1C(=O)OC1OC(=O)c2ccccc21 (stereo partly shown) [talampicillin]	Inactive	
Cc1scc2c1N(C(=O)CN1CCN(C)CC1)c1ccccc1NC2=O [telenzepine]	Inactive	
CC(C)N1CCN(c2ccc(OCC3COC(Cn4cncn4)(c4ccc(Cl)cc4Cl)O3)cc2)CC1 (stereo not shown) [terconazole]	Inactive	
COc1ccc2cc1Oc1ccc(cc1)C[C@H]1c3cc(c(OC)cc3CCN1C)Oc1c(OC)c(OC)cc3c1[C@H](C2)N(C)CC3 [tetrandrine]		Annotation (hERG inhibition class, Active/Inactive by IC50) [2]: Inactive
O=C1CCC(N2C(=O)c3ccccc3C2=O)C(=O)N1 (stereo not shown) [thalidomide]	Inactive	
COc1c(O[C@@H]2O[C@H](CO)[C@@H](O)[C@H](O)[C@H]2O)cc2c(c1OC)-c1ccc(SC)c(=O)cc1[C@@H](NC(C)=O)CC2 [thiocolchicoside]	Inactive	
Nc1nc2c(ncn2[C@@H]2O[C@H](CO)[C@@H](O)[C@H]2O)c(=S)[nH]1 [thioguanosine]	Inactive	
CC(C(=O)O)c1ccc(C(=O)c2ccccc2)s1 (stereo not shown) [tiaprofenic acid]	Inactive	
Cc1ccc(S(=O)(=O)NC(=O)NN2CCCCCC2)cc1 [tolazamide]	Inactive	
c1ccc(CC2=NCCN2)cc1 [tolazoline]	Inactive	
CCCCNC(=O)NS(=O)(=O)c1ccc(C)cc1 [tolbutamide]	Inactive	
Cc1c(Cl)cccc1Nc1ccccc1C(=O)O [tolfenamic acid]	Inactive	
Cc1ccc(C(=O)c2ccc(CC(=O)O)n2C)cc1 [tolmetin]		Annotation (hERG inhibition class, Active/Inactive by IC50) [2]: Inactive
Cc1cccc(N(C)C(=S)Oc2ccc3ccccc3c2)c1 [tolnaftate]	Inactive	
CCCCNc1c(C(=O)OCC)c(C)nc2c1cnn2CC [tracazolate]	Inactive	

Compound	Annotation (hERG inhibition class, Active/Inactive by IC50) [2, 5]	also measured
Nc1nc(N)c2nc(-c3ccccc3)c(N)nc2n1 [triamterene]		Annotation (hERG inhibition class, Active/Inactive by IC50) [2]: Inactive
O=c1[nH]c(=O)n([C@H]2C[C@H](O)[C@@H](CO)O2)cc1C(F)(F)F [trifluridine]	Inactive	
COc1cc(Cc2cnc(N)nc2N)cc(OC)c1OC [trimethoprim]	Inactive	
Cc1ccc(/C(=C\CN2CCCC2)c2ccccn2)cc1 [triprolidine]	Active	
Nc1ncnc2c1ncn2[C@@H]1O[C@H](CO)[C@@H](O)[C@@H]1O [vidarabine]	Inactive	
COC(=O)[C@@H]1[C@H]2C[C@H]3c4[nH]c5ccccc5c4CCN3C[C@@H]2CC[C@@H]1O [yohimbine]	Active	
OCCN1CCN(CC/C=C2/c3ccccc3Sc3ccc(Cl)cc32)CC1 [zuclopenthixol]	Active	
adenosine phosphate		Annotation (hERG Active / Inactive) [2, 6]: Inactive
atovaquone		Annotation (hERG Active / Inactive) [2]: Inactive
diethylstilbestrol		Annotation (hERG Active / Inactive) [2]: Inactive
diphenylpyraline		Annotation (hERG Active / Inactive) [2, 6]: Inactive
doxycycline		Annotation (hERG Active / Inactive) [2, 6]: Inactive
estrone		Annotation (hERG Active / Inactive) [2, 6]: Inactive
felodipine		Annotation (hERG Active / Inactive) [2, 6]: Inactive
fluticasone		Annotation (hERG Active / Inactive) [2, 7]: Inactive
hydrocortisone		Annotation (hERG Active / Inactive) [2, 7]: Inactive
isometheptene		Annotation (hERG Active / Inactive) [2, 7]: Inactive
meglumine		Annotation (hERG Active / Inactive) [2, 7]: Inactive
minocycline		Annotation (hERG Active / Inactive) [2, 7]: Inactive
mometasone		Annotation (hERG Active / Inactive) [2, 7]: Inactive
naloxone		Annotation (hERG Active / Inactive) [2, 7]: Active
nitrendipine		Annotation (hERG Active / Inactive) [2, 7]: Inactive
prednisolone		Annotation (hERG Active / Inactive) [2, 7]: Inactive
rifabutin	Inactive	
triamcinolone	Inactive	
